{
  "source": "patent US20170189419A1",
  "about": "“PHARMACEUTICAL COMPOSITION FOR TREATING PROSTATE CANCER” (MA SHEN KAI RUEI CO., LTD., priority 2015, published 2017)",
  "key": {"[1]": {"tested_on": "human prostate-cancer cells DU-145", "assay": "MTT survival assay, DU-145 prostate cancer cells", "assay_type": "cell-based", "settings": "DU-145 cells; for survival rate / growth of prostate cancer cell: compound isolated from Extraction A", "description": "(§1) According to the present invention, the effects such as treating Prostate cancer, inhibiting the growth of Prostate cancer cell and others, of Antroquinonol B (AnQB) and/or Anctin K (AnK) may be tested by using any of the test methods used in the prior arts, for example, MTT assay of using 3-(4, 5-dimethylthiazol-2-yl)-2, S-diphenyl tetrazolium bromide (MTT) to determine cell survival rates of Prostate cancer cell lines.\n(§2) The Antroquinonol B (AnQB) and Anctin K (AnK) separately isolated from the Extraction A of Example 1 were added into the culture media of human prostate-cancer cells, PC3 or DU-145, to test for tumor cell survival by using anti-cancer drug screen model. This survival assay was carried out with the widely known MTT (3-[4,5-dimethylthiazol-2-yl]2,5-diphenyltetrazolium bromide) assay.\n(§3) The human prostate cancer cell lines, PC-3 and DU-145 were cultivated in media containing fetal calf serum for 18 hours. The proliferated cells were washed once with PBS, then treated with 1× trypsin-EDTA and centrifuged at 2500 rpm for […]. The supernatant was discarded and the cell pellet was re-suspended in 200 ml of fresh culture medium by gently shaking. The cells were placed in a 96-well plate.\n(§4) Subsequently, the plates were read on an ELISA reader to determine the survival rates. The half maximal inhibitory concentration (IC50) values were calculated and results of ex vivo survival assay were thus obtained.\n(§5) By using the same manner as the method described above, respectively human Prostate cancer cell line PC-3 and DU-145 was cultured. After then, the pharmaceutical compositions A˜F of the present invention was applied separately, and then MTT assay for each sample was measured to assess the inhibition effectiveness of various cancer cell activity while using pharmaceutical compositions A˜F of the present invention."}, "[2]": {"tested_on": "human prostate-cancer cells PC3", "assay": "MTT survival assay, PC3 prostate cancer cells", "assay_type": "cell-based", "settings": "for half-maximal inhibitory concentration (IC50): PC3 cells; for survival rate / growth of prostate cancer cell: PC-3 cells, compound isolated from Extraction A", "description": "as §1, §2, §3, §4, §5"}},
  "data": [
    {"smiles": "C=C(CC[C@@H](C(=O)O)[C@H]1CC[C@@]2(C)C3=CC[C@H]4C(C)(C)[C@@H](O)CC[C@]4(C)C3=CC[C@]12C)C(C)C", "note": "[Anctin K]", "values": [
      {"measurement": "half-maximal inhibitory concentration (IC50)", "setting": "[1]", "value": "relatively low"},
      {"measurement": "survival rate / growth of prostate cancer cell", "setting": "[1]", "value": "can inhibit the growth"},
      {"measurement": "half-maximal inhibitory concentration (IC50)", "setting": "[2]", "value": "relatively low"},
      {"measurement": "survival rate / growth of prostate cancer cell", "setting": "[2]", "value": "can inhibit the growth"}
    ]},
    {"smiles": "COC1=C(OC)[C@H](O)[C@H](C/C=C(\\C)CC/C=C(/C)C/C=C/C(C)(C)O)[C@@H](C)C1=O", "note": "[Antroquinonol B]", "values": [
      {"measurement": "half-maximal inhibitory concentration (IC50)", "setting": "[1]", "value": "relatively low"},
      {"measurement": "survival rate / growth of prostate cancer cell", "setting": "[1]", "value": "can inhibit the growth"},
      {"measurement": "half-maximal inhibitory concentration (IC50)", "setting": "[2]", "value": "relatively low"},
      {"measurement": "survival rate / growth of prostate cancer cell", "setting": "[2]", "value": "can inhibit the growth"}
    ]}
  ]
}
